In patent US10919885B2, “Compounds and uses thereof” (Yumanity Therapeutics, Inc., priority 2018, dated 2021):

Target: human SCD1 (Homo sapiens (Human), UniProt O00767)
Experiment: Yeast growth assay, strain expressing human SCD1 as the sole desaturase (reduced growth as surrogate for SCD inhibition)
Type: cell-based
Settings: yeast with OLE1 deleted expressing human SCD1 from a plasmid; growth read as OD600 after 40 h at 30° C.; top drug concentration 33.3 μM
Method: Strains expressing SCD1 or SCD5 as the sole desaturase, the human SCD1 and SCD5 genes were used to evaluate inhibition of SCD1/SCD5 using reduced growth as a surrogate for SCD inhibition. These yeast strains express human SCD1 or SCD5 from a plasmid harbored in a strain in which the yeast OLE1 gene is deleted.
All compound profiling experiments were performed using the same basic protocol. Yeast were cultured using standard techniques in complete synthetic media lacking uracil and containing yeast nitrogen base supplemented with 2% (w/v) glucose (SD-Ura) Starter cultures were inoculated in 3 mL SD-Ura media containing 0.01% tween and 0.2 mM palmitoleic and oleic acid. Cultures were incubated overnight in a 30° C. shaker incubator (225 rpm). Saturated morning cultures were centrifuged, washed in SD-Ura media lacking TWEEN-20 and fatty acids, and then diluted 1:20 in fresh SD-Ura media also lacking TWEEN-20 and fatty acids.
Compound administration was performed in two separate steps. First, 15 μL of SD-Ura was dispensed into clear 384-well assay plates using a MULTIDROP™ Combi reagent dispenser. […] The cultures described above were centrifuged and washed with media lacking TWEEN-20 or oleic and palmitoleic acids.
After yeast delivery, assay plates were incubated under humidified conditions at 30° C. for 40 h. Yeast growth was monitored by reading the OD600 of each well using a microplate reader (Perkin Elmer EnVision™).

Chain of human SCD1 (O00767 whole entry): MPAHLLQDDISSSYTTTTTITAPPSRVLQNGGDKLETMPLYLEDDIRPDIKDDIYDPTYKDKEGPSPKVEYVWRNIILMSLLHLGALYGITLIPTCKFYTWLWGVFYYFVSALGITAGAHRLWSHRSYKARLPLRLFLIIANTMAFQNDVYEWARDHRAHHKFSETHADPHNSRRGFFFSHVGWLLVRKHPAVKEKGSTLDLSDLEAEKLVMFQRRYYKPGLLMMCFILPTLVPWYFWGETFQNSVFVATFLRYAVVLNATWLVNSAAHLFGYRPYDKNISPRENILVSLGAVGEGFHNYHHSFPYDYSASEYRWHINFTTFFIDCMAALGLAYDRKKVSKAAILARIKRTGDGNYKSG

Row | Structure (SMILES) | IC50 [µM]
1 | O=C(c1cc(-c2ccccc2)on1)N1CCn2ccnc2C1 [Compound 268] | 36
2 | CC(C)c1cc(C(=O)Nc2cnn(Cc3cnccc3C(F)(F)F)c2)no1 [Compound 161, 5-isopropyl-N-(1-((4-(trifluoromethyl)pyridin-3-yl)methyl)-1H-pyrazol-4-yl)isoxazole-3-carboxamide] | 25
3 | O=C(c1cc(-c2ccccn2)on1)N1CCC(c2ccccc2)C1 (centres unmarked) [Compound 351] | > 45
4 | CC1(c2cc(C(=O)Nc3cnn(Cc4ccccc4)c3)no2)COC1 [Compound 121] | 0.21
5 | O=C(c1cc(-c2ccccc2)on1)N1CC=C(c2cc(F)ccc2Cl)CC1 [Compound 305] | 4.8
6 | N#Cc1ccc(-c2cc(C(=O)N3CCC(c4ccccc4)CC3)no2)c(F)c1 [Compound 325, 3-fluoro-4-(3-(4-phenylpiperidine-1-carbonyl)isoxazol-5-yl)benzonitrile] | 0.16
7 | O=C(c1cc(-c2ccccc2Cl)on1)N1CCC(c2ccccc2)C1 (centres unmarked) [Compound 333] | > 45
8 | CNC(=O)c1ccc(-c2cc(C(=O)N3CCC(F)(c4ccccc4)CC3)no2)cc1 [Compound 321] | > 45
9 | O=C(Nc1cnn(CC2CCCCC2)c1)c1cc(-c2ccco2)on1 [Compound 26, N-[1-(cyclohexylmethyl)pyrazol-4-yl]-5-(2-furyl)isoxazole-3-carboxamide] | > 45
10 | O=C(c1cc(-c2ccc(Cl)cn2)on1)N1CC(c2ccccc2)C1 [Compound 241, (5-(5-chloropyridin-2-yl)isoxazol-3-yl)(3-phenylazetidin-1-yl)methanone] | 3.38
11 | O=C(Nc1cnn(Cc2cnccc2C(F)(F)F)c1)c1cc(-c2cnco2)on1 [Compound 171, 5-(oxazol-5-yl)-N-(1-((4-(trifluoromethyl)pyridin-3-yl)methyl)-1H-pyrazol-4-yl)isoxazole-3-carboxamide] | 19
12 | O=C(c1cc(-c2ccccc2)on1)N1CCC2(CCN(c3ccccc3)C2)C1 (centres unmarked) [Compound 341] | > 45
13 | O=C(c1cc(-c2ccc(Cl)cn2)on1)N1CC(Cc2ccccc2)C1 [Compound 254] | > 45
14 | O=C(Nc1cnn(Cc2cccc(F)c2)c1)c1cc(-c2cncs2)on1 [Compound 69, N-(1-(3-fluorobenzyl)-1H-pyrazol-4-yl)-5-(thiazol-5-yl)isoxazole-3-carboxamide] | 0.19
15 | O=C(Nc1cnn(Cc2cnccc2C(F)(F)F)c1)c1cc(N2CCCCC2)on1 [Compound 182, 5-(piperidin-1-yl)-N-(1-((4-(trifluoromethyl)pyridin-3-yl)methyl)-1H-pyrazol-4-yl)isoxazole-3-carboxamide] | > 45
16 | O=C(Nc1cc(-c2ccco2)on1)c1cnn(Cc2ccccc2)c1 [Compound 49, 1-benzyl-N-[5-(2-furyl)isoxazol-3-yl]pyrazole-4-carboxamide] | > 45
17 | O=C(Nc1cnn(Cc2ccccc2)c1)c1cc(N2CCNCC2)on1 [Compound 190] | > 45
18 | O=C(c1cc(-c2ccccc2)on1)N1CC(Cc2ccccc2)C1 [Compound 211, (3-benzylazetidin-1-yl)-(5-phenylisoxazol-3-yl)methanone] | 0.12
19 | O=C(Nc1cnn(Cc2ccccc2)c1)c1cc(-c2cncs2)on1 [Compound 37, N-(1-benzylpyrazol-4-yl)-5-thiazol-5-yl-isoxazole-3-carboxamide] | 0.26
20 | O=C(Nc1cnn(Cc2ccccc2)c1)c1cc(Cl)on1 [Compound 180] | > 45
21 | O=C(NC1CCN(c2ccccc2)C1)c1cc(-c2ccco2)on1 (centres unmarked) [Compound 343] | > 45
22 | CC(C)(C)OC(=O)N1CCN(c2cc(C(=O)Nc3cnn(Cc4ccccc4)c3)no2)CC1 [Compound 185, tert-butyl 4-(3-(1-benzyl-1H-pyrazol-4-ylcarbamoyl)isoxazol-5-yl)piperazine-1-carboxylate] | 0.012
23 | CNC(=O)c1ccc(-c2cc(C(=O)N3CC(c4ccccc4)C3)no2)cc1 [Compound 231, N-methyl-4-(3-(3-phenylazetidine-1-carbonyl)isoxazol-5-yl)benzamide] | > 45
24 | O=C(Nc1cnn(Cc2cccc(Cl)c2)c1)c1cc(-c2ccco2)on1 [Compound 22, N-[1-[(3-chlorophenyl)methyl]pyrazol-4-yl]-5-(2-furyl)isoxazole-3-carboxamide] | > 45
25 | CC(C)c1cc(C(=O)Nc2cnn(Cc3cccc(F)c3)c2)no1 [Compound 60, N-(1-(3-fluorobenzyl)-1H-pyrazol-4-yl)-5-isopropylisoxazole-3-carboxamide] | 0.03
26 | O=C(c1cc(-c2ccco2)on1)N1CC2(CCC2)C1 [Compound 246] | > 45
27 | O=C(Nc1cnn(Cc2ccccc2)c1)c1cc(N2CCCC2)on1 [Compound 178, N-(1-benzyl-1H-pyrazol-4-yl)-5-(pyrrolidin-1-yl)isoxazole-3-carboxamide] | 0.01
28 | CO[C@@H]1CCN(c2cc(C(=O)Nc3cnn(Cc4ccccc4)c3)no2)C1 [Compound 188, (R)—N-(1-benzyl-1H-pyrazol-4-yl)-5-(3-methoxypyrrolidin-1-yl)isoxazole-3-carboxamide] | 0.074
29 | C=C(C)c1cc(C(=O)Nc2cnn(Cc3cccc(F)c3)c2)no1 [Compound 58, N-(1-(3-fluorobenzyl)-1H-pyrazol-4-yl)-5-(prop-1-en-2-yl)isoxazole-3-carboxamide] | 0.02
30 | O=C(Nc1cnn(Cc2cnccc2C(F)(F)F)c1)c1cc(-c2ccco2)on1 [Compound 198, 5-(furan-2-yl)-N-(1-{[4-(trifluoromethyl)pyridin-3-yl]methyl}-1H-pyrazol-4-yl)-1,2-oxazole-3-carboxamide] | > 45

Second part, the molecule after the results:

Row | IC50 [µM] | Structure (SMILES)
31 | 33.5 | O=C(c1cc(-c2ccc3c(c2)OCO3)on1)N1CCC[C@H]1c1ccccc1 [Compound 327]
32 | > 45 | CC(C)(C)OC(=O)N1CCN(C(=O)c2cc(-c3ccc4c(c3)OCO4)on2)CC1 [Compound 267]
33 | > 45 | O=C(c1cc(-c2ccc3c(c2)OCO3)on1)N1CCCc2cccc(F)c21 [Compound 264]
34 | > 45 | COc1ccc([C@H]2CCCN2C(=O)c2cc(-c3ccc4c(c3)OCO4)on2)cc1 [Compound 360]
35 | > 45 | O=C(Nc1cnn(Cc2cnccc2C(F)(F)F)c1)c1cc(-c2ccc3c(c2)OCO3)on1 [Compound 199, 5-(2H-1,3-benzodioxol-5-yl)-N-(1-{[4-(trifluoromethyl)pyridin-3-yl]methyl}-1H-pyrazol-4-yl)-1,2-oxazole-3-carboxamide]
36 | 30.5 | O=C(c1cc(-c2ccccc2)on1)N1CCC[C@H]1c1ccccc1 [Compound 386]
37 | > 45 | O=C(c1cc(-c2ccc3c(c2)OCO3)on1)N1C[C@H](F)C[C@H]1c1ccccc1 [Compound 420]
38 | > 45 | COc1ccc(C2CCCN2C(=O)c2cc(-c3ccc4c(C)nn(C)c4c3)on2)cc1 (centres unmarked) [Compound 394]
39 | > 45 | CC1CN(c2ccccc2)CCN1C(=O)c1cc(-c2ccc3c(c2)OCO3)on1 (centres unmarked) [Compound 270, (5-(benzo[d][1,3]dioxol-5-yl)isoxazol-3-yl)(2-methyl-4-phenylpiperazin-1-yl)methanone]
40 | 1.57 | O=C(c1cc(-c2ccc3c(c2)OCO3)on1)N1CC(c2ccccc2)C1 [Compound 217, [5-(1,3-benzodioxol-5-yl)isoxazol-3-yl]-(3-phenylazetidin-1-yl)methanone]
41 | > 45 | O=C(c1cc(-c2ccc3c(c2)OCO3)on1)N1CCC[C@H]1C(F)(F)F [Compound 373]
42 | > 45 | O=C(c1cc(-c2ccccc2)on1)N1CCC[C@@H]1c1ccccc1 [Compound 385]
43 | > 45 | Cn1nccc1-c1ccc2c(C(=O)N3CCC[C@H]3c3ccccc3)noc2c1 [Compound 454]
44 | > 45 | N#Cc1ccc(-c2cc(C(=O)N3CCC[C@H]3c3ccccc3)no2)nc1 [Compound 435]
45 | 23.1 | COc1ccc(-c2cc(C(=O)N3CCC[C@H]3c3ccccc3)no2)nc1 [Compound 416]
46 | > 45 | O=C(c1cc(-c2ccc3c(c2)OCO3)on1)N1CCCC1c1cc(Br)no1 (centres unmarked) [Compound 412]
47 | > 45 | COc1ccc(C2CCCN2C(=O)c2cc(-c3cccc(OC)c3)on2)cc1 (centres unmarked) [Compound 375]
48 | 31.1 | N#Cc1cccc(-c2cc(C(=O)N3CCC[C@H]3c3ccccc3)no2)c1 [Compound 403]
49 | > 45 | C[C@@H]1CCCN1C(=O)c1cc(-c2ccc3c(c2)OCO3)on1 [Compound 370]
50 | > 45 | O=C(c1cc(-c2ccc3c(c2)OCO3)on1)N1CCCC1c1ccccc1Br (centres unmarked) [Compound 390]
51 | 40.2 | COc1ccc(-c2cc(C(=O)N3CCCC3c3ccccc3F)no2)nc1 (centres unmarked) [Compound 415]
52 | > 45 | O=C(c1cc(-c2ccc3c(c2)OCO3)on1)N1CCCC1C1CC1 (centres unmarked) [Compound 407]
53 | > 45 | COc1ccc(C2CCCN2C(=O)c2cc(-c3ccc4c(c3)OC(F)(F)O4)on2)cc1 (centres unmarked) [Compound 393]
54 | > 45 | Cc1nn(Cc2ccccc2)c(C)c1NC(=O)c1cc(-c2ccc3c(c2)OCO3)on1 [Compound 5]
55 | 37.1 | O=C(c1cc(-c2ccc3c(c2)OCO3)on1)N1CC2(CC(c3ccccc3)C2)C1 [Compound 228]
56 | > 45 | O=C(c1cc(-c2ccc3c(c2)OCO3)on1)N1CCC[C@@H]1C(F)(F)F [Compound 372]
